Results on 29 compounds are retold here after patent US20260374754A1, “N-((ISOQUINOLIN-6-YL)METHYL)-1H-PYRAZOLE-4-CARBOXAMIDE DERIVATIVES AS PLASMA KALLIKREIN INHIBITORS FOR THE TREATMENT OF HEREDITARY ANGIODEMA” (Takeda Pharmaceutical Company Limited, priority 2022, published 2026).

Where a name gives a salt, the structure may show the parent alone.

human activated kallikrein enzyme, sequence (P03952 391-638 limits assumed): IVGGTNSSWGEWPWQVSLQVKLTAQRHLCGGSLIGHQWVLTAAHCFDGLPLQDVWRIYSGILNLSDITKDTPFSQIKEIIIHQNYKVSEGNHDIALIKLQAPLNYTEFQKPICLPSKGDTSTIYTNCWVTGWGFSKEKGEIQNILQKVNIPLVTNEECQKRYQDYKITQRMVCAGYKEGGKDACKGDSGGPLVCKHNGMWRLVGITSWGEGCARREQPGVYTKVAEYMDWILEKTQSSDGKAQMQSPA
human activated kallikrein enzyme, sequence (P03952 20-390 partner limits assumed): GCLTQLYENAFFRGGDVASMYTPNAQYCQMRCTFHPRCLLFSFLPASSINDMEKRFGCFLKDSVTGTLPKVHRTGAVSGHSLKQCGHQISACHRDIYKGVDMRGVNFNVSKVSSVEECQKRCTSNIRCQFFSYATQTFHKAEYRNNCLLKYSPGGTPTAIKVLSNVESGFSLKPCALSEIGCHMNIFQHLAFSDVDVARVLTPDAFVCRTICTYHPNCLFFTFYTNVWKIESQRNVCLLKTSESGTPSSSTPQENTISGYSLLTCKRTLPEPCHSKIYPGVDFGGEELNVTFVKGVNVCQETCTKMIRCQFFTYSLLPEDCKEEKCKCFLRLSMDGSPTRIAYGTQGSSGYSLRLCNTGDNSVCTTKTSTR

The experiment addresses human activated kallikrein enzyme (Homo sapiens, UniProt P03952). Put plainly: Inhibition of human activated plasma kallikrein, fluorogenic PFR-AMC substrate, 500 pM enzyme format. In kind it is biochemical. The following applies: 500 pM activated kallikrein; 300 μM PFR-AMC; 30 min preincubation; 10 min room temperature; pH 7.5; read-out: Primary Dose Response Assay: Average EC50. A digest of the protocol:
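500 pM activated kallikrein preincubated 30 min at room temperature with inhibitors in pH 7.5 Tris/EDTA/NaCl buffer with PEG-400 and Triton X-100. Reaction started with 300 μM PFR-AMC, run 10 min at room temperature; AMC fluorescence read at ex 380/em 460 nm.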
Turning to `Cc1cc2c(N)nccc2c(C)c1CNC(=O)c1cnn(Cc2ccc(C3CC3)cc2)c1` [Example 29, N-((1-amino-5,7-dimethylisoquinolin-6-yl)methyl)-1-(4-cyclopropylbenzyl)-1H-pyrazole-4-carboxamide], the EC50 (usually the concentration giving half of the maximal effect) lay in the range of 1 to 10 nM. On to `Cc1cc2c(N)nccc2c(C)c1CNc1nccn2cc(Cc3ccc4ccccc4c3)nc12` [Example 525, 5,7-dimethyl-6-(((2-(naphthalen-2-ylmethyl)imidazo[1,2-a]pyrazin-8-yl)amino)methyl)isoquinolin-1-amine], for which the EC50 lay within 100 to 1000 nM. With `Cc1cc2c(N)nccc2c(C)c1CNc1cc(C(F)(F)c2cn3cc(C4CC4)ccc3n2)ncn1` [Example 404, 6-(((6-((6-cyclopropylimidazo[1,2-a]pyridin-2-yl)difluoromethyl)pyrimidin-4-yl)amino)methyl)-5,7-dimethylisoquinolin-1-amine], the EC50 lay in the range of 10 to 100 nM. To `Cc1cc2c(N)nccc2c(C)c1CNC(=O)c1cnn(Cc2ccc(CC(=O)N3CCCC3)cc2)c1` [Example 232, N-((1-amino-5,7-dimethylisoquinolin-6-yl)methyl)-1-(4-(2-oxo-2-(pyrrolidin-1-yl)ethyl)benzyl)-1H-pyrazole-4-carboxamide] belongs < 1 nM. For `Cc1cc2c(N)nccc2c(C)c1CNC(=O)c1cnn(Cc2cnc3cc(Cl)ccc3c2)c1` [Example 61, N-((1-amino-5,7-dimethylisoquinolin-6-yl)methyl)-1-((7-chloroquinolin-3-yl)methyl)-1H-pyrazole-4-carboxamide], the EC50 is < 1 nM. The same measure for `Cc1cc2c(N)nccc2c(C)c1CNC(=O)c1cnn(Cc2ccc3ccc(Cl)cc3n2)c1` [Example 107, N-((1-amino-5,7-dimethylisoquinolin-6-yl)methyl)-1-((7-chloroquinolin-2-yl)methyl)-1H-pyrazole-4-carboxamide]: 1 to 10 nM. The same measure for `CCOC(=O)C(C)(C)Cc1cc(C2CC2)cc2cc(COc3cc(NCc4c(C)cc5c(N)nccc5c4C)ncn3)nn12` [Example 396, ethyl 3-(2-(((6-(((1-amino-5,7-dimethylisoquinolin-6-yl)methyl)amino)pyrimidin-4-yl)oxy)methyl)-5-cyclopropylpyrazolo[1,5-a]pyridin-7-yl)-2,2-dimethylpropanoate]: 1 to 10 nM; for `CCOC(=O)N(C)c1ccc(Cn2cc(C(=O)NCc3c(C)cc4c(N)nccc4c3C)cn2)cc1` [Example 25, ethyl (4-((4-(((1-amino-5,7-dimethylisoquinolin-6-yl)methyl)carbamoyl)-1H-pyrazol-1-yl)methyl)phenyl)(methyl)carbamate]: 1 to 10 nM. The same measure for `Cc1cc2c(N)nccc2c(C)c1CNC(=O)c1cnn(Cc2cn3cccc(C)c3n2)c1` [Example 54, N-((1-amino-5,7-dimethylisoquinolin-6-yl)methyl)-1-((8-methylimidazo[1,2-a]pyridin-2-yl)methyl)-1H-pyrazole-4-carboxamide]: 1 to 10 nM; for `Cc1cc2c(N)nccc2c(C)c1CNC(=O)c1cnn(Cc2ccc(CC(=O)N3CC4C(C3)C4(F)F)cc2)c1` (centres unmarked) [Example 214, N-((1-amino-5,7-dimethylisoquinolin-6-yl)methyl)-1-(4-(2-(6,6-difluoro-3-azabicyclo[3.1.0]hexan-3-yl)-2-oxoethyl)benzyl)-1H-pyrazole-4-carboxamide]: < 1 nM; for `CC(=O)Nc1nccc2c(C)c(CNc3cc(OCc4ccc(Cn5cccn5)cc4)cnn3)c(C)cc12` [Example I-470, N-(6-(((5-((4-((1H-pyrazol-1-yl)methyl)benzyl)oxy)pyridazin-3-yl)amino)methyl)-5,7-dimethylisoquinolin-1-yl)acetamide]: 10 to 100 nM.

Consider `Cc1cc2c(N)nccc2c(C)c1CNC(=O)c1cnn(Cc2cn3cc(Br)c(Cl)cc3n2)c1` [Example 149, N-((1-amino-5,7-dimethylisoquinolin-6-yl)methyl)-1-((6-bromo-7-chloroimidazo[1,2-a]pyridin-2-yl)methyl)-1H-pyrazole-4-carboxamide], for which the EC50 was < 1 nM.

As for `Cc1cc2c(N)nccc2c(C)c1CNC(=O)c1cnn(Cc2ccc(CC(=O)N3C(C)CCC3C)cc2)c1` (centres unmarked) [Example 218, N-((1-amino-5,7-dimethylisoquinolin-6-y1)methyl)-1-(4-(2-(2,5-dimethylpyrrolidin-1-yl)-2-oxoethyl)benzyl)-1H-pyrazole-4-carboxamide], the EC50 lay in the range of 1 to 10 nM.

For the compound `Cc1cc2c(N)nccc2c(C)c1CNc1cc(OCc2nc3ccc(C4CC4)cn3n2)nc(C(=O)O)n1` [Example I-486, 4-(((1-amino-5,7-dimethylisoquinolin-6-yl)methyl)amino)-6-((6-cyclopropyl-[1,2,4]triazolo[1,5-a]pyridin-2-yl)methoxy)pyrimidine-2-carboxylic acid], the EC50 was 1 to 10 nM. Consider `Cc1cc2c(N)nccc2c(C)c1CNc1cc(NCc2ccc(Cc3cc[nH]n3)cc2)ncn1` [Example 358, N^4-(4-((1H-pyrazol-3-yl)methyl)benzyl)-N^6-((1-amino-5,7-dimethylisoquinolin-6-yl)methyl)pyrimidine-4,6-diamine], for which the EC50 was in the range of 1 to 10 nM. For `Cc1ccc2nc(C(CO)n3cc(C(=O)NCc4c(C)cc5c(N)nccc5c4C)cn3)cn2c1` (centres unmarked) [Example 130, N-((1-amino-5,7-dimethylisoquinolin-6-yl)methyl)-1-(2-hydroxy-1-(6-methylimidazo[1,2-a]pyridin-2-yl)ethyl)-1H-pyrazole-4-carboxamide], the EC50 was < 1 nM. With `Cc1cc2c(N)nccc2c(C)c1CNC(=O)c1cnn(Cc2cn3c(C4CC4)cccc3n2)c1` [Example 137, N-((1-amino-5,7-dimethylisoquinolin-6-yl)methyl)-1-((5-cyclopropylimidazo[1,2-a]pyridin-2-yl)methyl)-1H-pyrazole-4-carboxamide], the EC50 lay in the range of 1 to 10 nM.

Turning to `Cc1cc2c(N)nccc2c(C)c1CNc1nccc2cn(Cc3ccc(Cn4cccn4)cc3)nc12` [Example 260, 6-(((2-(4-((1H-pyrazol-1-yl)methyl)benzyl)-2H-pyrazolo[3,4-c]pyridin-7-yl)amino)methyl)-5,7-dimethylisoquinolin-1-amine], the EC50 was 1 to 10 nM. To `Cc1cc2c(N)nccc2c(C)c1CNC(=O)c1cnn(Cc2cn3c(Cl)c(Br)ccc3n2)c1` [Example 138, N-((1-amino-5,7-dimethylisoquinolin-6-yl)methyl)-1-((6-bromo-5-chloroimidazo[1,2-a]pyridin-2-yl)methyl)-1H-pyrazole-4-carboxamide] belongs < 1 nM; to `Cc1cc2c(N)nccc2c(C)c1CNc1cc(OCc2cnc3ccccn23)cnn1` [Example 414, 6-(((5-(imidazo[1,2-a]pyridin-3-ylmethoxy)pyridazin-3-yl)amino)methyl)-5,7-dimethylisoquinolin-1-amine], > 1000 nM. As for `COCc1nn(Cc2cnc(N3CCCC3)nc2)cc1C(=O)NCc1c(C)cc2c(N)nccc2c1C` [Example 162, N-((1-amino-5,7-dimethylisoquinolin-6-yl)methyl)-3-(methoxymethyl)-1-((2-(pyrrolidin-1-y1)pyrimidin-5-yl)methyl)-1H-pyrazole-4-carboxamide], the EC50 is < 1 nM.

As to `Cc1cc2c(N)nccc2c(C)c1CNC(=O)c1cnn(Cc2cccc(C#N)c2)c1` [Example 94, N-((1-amino-5,7-dimethylisoquinolin-6-yl)methyl)-1-(3-cyanobenzyl)-1H-pyrazole-4-carboxamide], the EC50 lay within 10 to 100 nM. `Cc1cc2c(N)nccc2c(C)c1CNC(=O)c1cnn(Cc2ccc(CC(=O)N3CC4CC4(C(=O)O)C3)cc2)c1` (centres unmarked) [Example 216, 3-(2-(4-((4-(((1-amino-5,7-dimethylisoquinolin-6-yl)methyl)carbamoyl)-1H-pyrazol-1-yl)methyl)phenyl)acetyl)-3-azabicyclo[3.1.0]hexane-1-carboxylic acid]: the EC50 lay in the range of 10 to 100 nM.

On to `COCc1c(C(=O)NCc2c(C)cc3c(N)nccc3c2C)cnn1Cc1cnc(N2CCCC2)nc1` [Example 161, N-((1-amino-5,7-dimethylisoquinolin-6-yl)methyl)-5-(methoxymethyl)-1-((2-(pyrrolidin-1-yl)pyrimidin-5-yl)methyl)-1H-pyrazole-4-carboxamide], for which the concentration for a half-maximal effect (EC50) is 10 to 100 nM. To `Cc1cc2c(N)nccc2c(C)c1CNc1cc2c(ccn2Cc2ccc3ncccc3c2)cn1` [Example 517, 5,7-dimethyl-6-(((1-(quinolin-6-ylmethyl)-1H-pyrrolo[3,2-c]pyridin-6-yl)amino)methyl)isoquinolin-1-amine] belongs 100 to 1000 nM; to `Cc1cc2c(N)nccc2c(C)c1CNC(=O)c1cnn(Cc2cn3c(C#N)cccc3n2)c1` [Example 143, N-((1-amino-5,7-dimethylisoquinolin-6-yl)methyl)-1-((5-cyanoimidazo[1,2-a]pyridin-2-yl)methyl)-1H-pyrazole-4-carboxamide], < 1 nM. Turning to `Cc1cc2c(N)nccc2c(C)c1CNc1nccc2nnn(Cc3cn4cc(C5CC5)ccc4n3)c12` [Example 253, 6-(((3-((6-cyclopropylimidazo[1,2-a]pyridin-2-yl)methyl)-3H-[1,2,3]triazolo[4,5-c]pyridin-4-yl)amino)methyl)-5,7-dimethylisoquinolin-1-amine], the EC50 was 100 to 1000 nM. On to `Cc1cc2c(N)nccc2c(C)c1CNC(=O)c1cnn(Cc2cn3c(C)c(Br)ccc3n2)c1` [Example 145, N-((1-amino-5,7-dimethylisoquinolin-6-yl)methyl)-1-((6-bromo-5-methylimidazo[1,2-a]pyridin-2-yl)methyl)-1H-pyrazole-4-carboxamide], for which the EC50 was < 1 nM. To `Cc1cc2c(N)nccc2c(C)c1CNc1cc(OCc2cc3cc(Cl)ccc3s2)cnn1` [Example 417, 6-(((5-((5-chlorobenzo[b]thiophen-2-yl)methoxy)pyridazin-3-yl)amino)methyl)-5,7-dimethylisoquinolin-1-amine, formic acid salt] belongs 1 to 10 nM.
